Assay results: paper PMC6161602, “Synthesis and characterisation of (Z)-styrylbenzene derivatives as potential selective anticancer agents” (Journal of Enzyme Inhibition and Medicinal Chemistry, 2018)

Experiments:
MGC-803 cells = assay: MTT cell growth inhibition assay, MGC-803; assay type: cell-based, human; conditions: for IC50: MTT, 48 h incubation, MGC-803
Source text: (§1) All human cell lines were used in this study. MGC-803 late-stage differentiation gastric cancer cell, A549 lung cancer cell, HepG2 hepatoma cell, AGS gastric cancer cell, BEL-7402 liver cancer cell, HCT-116 colorectal cancer cell, HeLa cervical cancer cell, SGC-7901 early differentiation gastric cancer cell, L-02 normal liver cell, MCF-7 breast cancer cell, and MCF-10A normal breast cell were initially purchased from American Type Culture Collection (ATCC, Manassas, VA, USA). RPMI-1640 media, Dulbecco’s modified Eagle’s medium (DMEM), and foetal bovine serum (FBS) were provided from Gibco Company (Grand Island, NY, USA). The cells were maintained in DMEM or RPMI-1640, supplemented with 10% FBS, 100 IU/mL penicillin and […] (Grand Island, NY, USA), and at 37 °C in a humidified atmosphere containing 5% CO2.
(§2) Cells were plated in 96-well plates at a density of 30–40% to ensure exponential growth throughout the experimental period, and then allowed to adhere for 1 day[21]. Next, the cells were treated with four serial concentrations (1, 10, 50, and 100 µM) of each compound. Taxol, CA-4, and CA-4P (phosphorylated form of CA-4) were used as positive controls. After 48 h incubation, MTT solution was added to each well at a final concentration of 2 mg/mL, and incubated for an additional 4 h. Next, the MTT solution was removed and 150 µL of dimethyl sulphoxide (DMSO)/well was added (Sigma-Aldrich, St Louis, MO, USA). The plates were shaken vigorously at RT to ensure complete solubilisation, and absorption at 492 nm was determined.
(§3) According to standard protocol, preliminary in vitro anti-proliferative activities of the synthesised compounds were evaluated by MTT assay, using nine human cancer cell lines (MGC-803, A549, HepG2, AGS, BEL-7402, HCT116, HeLa, SGC-7901, and MCF-7) and two normal human cell lines (L-02 and MCF-10A), and compared with those of CA-4, CA-4P, and taxol.

HepG2 hepatoma cell = assay: MTT cell growth inhibition assay, HepG-2; assay type: cell-based, human
Source text: as §1, §2, §3

AGS cells = assay: MTT cell growth inhibition assay, AGS; assay type: cell-based, human
Source text: as §1, §2, §3

BEL-7402 cells [1] = assay: MTT cell growth inhibition assay, BEL-7402; assay type: cell-based, human; conditions: Homo sapiens; MTT, 48 h incubation, Bel-7402
Source text: as §1, §2, §3

HCT116 cells = assay: MTT cell growth inhibition assay, HCT116; assay type: cell-based, human
Source text: as §1, §2, §3

[2] = test system: HeLa cervical cancer cell; assay: MTT cell growth inhibition assay, HeLa; assay type: cell-based, human; conditions: Homo sapiens, 48 h incubation
Source text: as §1, §2, §3

MCF-7 breast cancer cell = assay: MTT cell growth inhibition assay, MCF-7; assay type: cell-based, human
Source text: as §1, §2, §3

BEL-7402 cells [3] = assay: Analysis for cell cycle by flow cytometry; assay type: cell-based, human; conditions: BEL-7402, 12 h incubation, concentration-dependent increase from-to (0.01, 0.05, 0.1 µM)
Description: BEL-7402 cells were plated 6-well plates with 5.0 × 10^5 cells/well for overnight (O/N) and were synchronised at the G0 phase by serum starvation (0.1% FBS in RPMI-1640) for 24 h. Then the cells were incubated with 0.01, 0.05, 0.1 µM of 6h and 0.1 μM of taxol, respectively. Vehicle group was treated with 0.1% DMSO. Following 12 h of incubation, the cells were detached with 0.05% trypsin/5 mM EDTA and centrifuged at 1000 rpm for 10 min, and fixed in 70% ethanol at −20 °C for O/N. Then, the cells were subsequently analysed the cell cycle distribution by flow cytometry using a FACSCalibur flow cytometer with Cell Quest software (Becton-Dickinson, Franklin Lakes, NJ, USA), plotting at least 30,000 events per sample[22]. The percentage of cells in the G0/G1, S, and G2/M phases of the cell cycle were determined using the ModFit LT version 4.0 software package (Verity Software, Topsham, ME, USA).

BEL-7402 cells [4] = assay: Transwell cell migration assay; assay type: cell-based, human; conditions: BEL-7402, transwell, 24 h, 0.1 or 0.5 µM
Description: Quantitative cell migration was performed using 24-well Boyden chambers (Corning, NY, USA) as described. Briefly, transwells with 8-µm pore size filters were inserted into 24-well plates. RPMI-1640 (500 µL) containing 10% FBS was added to the lower chamber, and 100 µL of a serum-free cell suspension (1 × 10^5 cells) was placed in the upper chamber. The BEL-7402 cells were pre-treated with indicated concentrations of 6h, taxol, or DMSO. The plates were incubated at 37 °C with 5% CO2 for 24 h, and the cells on the upside were removed using cotton swaps. After several rinses, the cells adhering in the lower layer of insert were fixed with methanol and stained with 1× crystal violet solution. The number of migrated cells in nine randomly selected fields from triplicate chambers was counted in each experiment under a phase-contrast microscope at 200× magnification.

BEL-7402 cells [5] = assay: Colony formation assay; assay type: cell-based, human; conditions: BEL-7402, exposure > 10 days, fitted from inhibition ratio of colony formation
Description: A previously described colony formation assay was used[7] with slight modification. 1 × 10^4 BEL-7402 cells/well were seeded into 6-well plates and then stimulated with the indicated concentration of 6h, taxol, or DMSO. The plates were removed from incubation when colonies were large enough to count (>50 cells). Colonies were then fixed and stained with 1 × Giemsa solution, rinsed, allowed to dry, and counted. All the experiments were repeated independently at least three times. The LD50 value for 6h was determined using SigmaPlot II.

BEL-7402 cells [6] = assay: Trypan blue staining; assay type: cell-based; conditions: 0.001 µM to 10 µM, data not shown
Description: Trypan blue staining was used to further investigate the cytotoxicity of 6h.

cyclin D1 = assay: Western blotting, cyclin D1; assay type: cell-based, human; conditions: BEL-7402, 12 h, immunoblot, dose-dependent
Description: (§4) BEL-7402 cells were harvested in logarithmic growth phase and the adherent and floating cells were collected after 12 h of drug treatment. The collected cells were resuspended in cold RIPA buffer (100 mM NaCl, 100 mM Tris (pH7.4), 10% Triton X-100, 1 mM PMSF, pH7.5) with 0.1 µM leupetin protease inhibitor as well as 1 µg/mL pepstatin and cracked on ice for 30 min. Then according to the reference to did immunoblotting assay.

cyclin B1 = assay: Western blotting, cyclin B1; assay type: cell-based, human; conditions: BEL-7402, 12 h, immunoblot
Description: as §4

With COc1cc(/C(C#N)=C/c2ccc(C)cc2)cc(OC)c1OC [Compound 6h, (Z)-3-(p-Tolyl)-2-(3,4,5-trimethoxyphenyl)acrylonitrile] the “fold more active than taxol against MGC-803 cells” value (MGC-803 cells) was 6 fold, the IC50 (MGC-803 cells; Homo sapiens, MGC-803, 48 h) was 10 to 7210 nM and the IC50 (MGC-803 cells) was less than 10 nM. For the same compound, the IC50 (HepG2 hepatoma cell; Homo sapiens, HepG2, MTT, 48 h incubation, HepG-2) was 3740 ± 1730 nM, the “SI IC50 (L-02/HepG-2)” value (HepG2 hepatoma cell; selectivity index, IC50 (L-02)/IC50 (HepG-2)) was greater than 26.7 and the IC50 (AGS cells; Homo sapiens, MTT, 48 h incubation, AGS) was 510 ± 450 nM. For the same compound, the “SI IC50 (L-02/AGS)” value (AGS cells; selectivity index, IC50 (L-02)/IC50 (AGS)) was greater than 196.0, the IC50 (BEL-7402 cells [1]) was 150 ± 30 nM and the IC50 (HCT116 cells; Homo sapiens, HCT-116, MTT, 48 h incubation, HCT116) was 610 ± 160 nM. The “SI IC50 (L-02/HCT116)” value (HCT116 cells; selectivity index, IC50 (L-02)/IC50 (HCT116)) was greater than 163.9, the IC50 [2] was greater than 100000 nM and the IC50 (MCF-7 breast cancer cell; Homo sapiens, MCF7, MTT, 48 h incubation, MCF-7) was 2610 ± 980 nM. For the same compound, the “SI IC50 (MCF-10A/MCF-7)” value (MCF-7 breast cancer cell; selectivity index, IC50 (MCF-10A)/IC50 (MCF-7)) was greater than 3.6, the “percentage of S cell population” value (BEL-7402 cells [3]) was 4.44–19.35% and the “migration ratio compared with the control group” value (BEL-7402 cells [4]) was “markedly decreased”. For the same compound, the “LD50 (colony formation)” value (BEL-7402 cells [5]) was 0.056 ± 0.0047 µM, the “percentages of dead cells (trypan blue)” value (BEL-7402 cells [6]) was “negligible” and the “expression of cyclin D1 compared with the vehicle group” value (cyclin D1) was “lower expression”. For the same compound, the “expression of cyclin B1 compared with vehicle or 0.1 µM of taxol” value (cyclin B1) was “increased expression”.
